These results are taken from US10961233B2 (LIFEARC, priority 2016, dated 2021).

The target of one assay is WT full length PAICS (Homo sapiens (Human), UniProt P22234). Description: Biochemical assay to measure PAICS activity (Transcreener ADP2 FI). The settings on record: SAICAR synthetase reaction, ADP detection, 30 min pre-incubation. From the text: Biochemical Assay to Measure PAICS Activity
The biochemical assay was used to measure PAICS SAICAR synthetase-mediated conversion of CAIR, aspartic acid and ATP to SAICAR, ADP and inorganic phosphate (Pi), post-AIR/CAIR equilibration (see FIG. 3). This was achieved by detecting the ADP generated during the reaction, using Bellbrook Lab's Transcreener ADP^2 FI assay. An increase in the fluorescence intensity is directly proportional to the amount of PAICS activity.
The Transcreener ADP^2 FI assay is a homogeneous competitive displacement fluorescence intensity assay which uses direct immunodetection of ADP. Displacement of the tracer by ADP causes an increase in the fluorescence at excitation 590 nm and emission 617 nm (FIG. 3).
5 μl WT full length PAICS (final assay concentration, fac, 2.5 nM) in basic buffer, added to black, non-binding, 384-well plates (Corning #3575), columns 1 to 22. 5 μl basic buffer was added to columns 23+24 (negative control). PAICS stock at 31.9 μM from the PI's lab (Steve Firestine). Basic buffer contained 50 mM Tris-HCl pH8 and 0.5 mM EDTA, fac.
1 μl compound in 100% DMSO added per well, or 1 μl 100% DMSO to positive controls (columns 1+2) and negative controls (columns 23+24). Final assay top concentration of compound either 1 mM or 30-μM, serially diluted with half-log dilutions across the plate in duplicate (one 10-point concentration response curve across wells 3 to 12, another across 13 to 22). Compounds pre-incubated with PAICS enzyme for 30 mins at RT. 2 μl CAIR added (fac 10 μM) in basic buffer plus 25 mM MgCl2 and 50 mM KHCO3 fac to all wells. CAIR stock 50 mM from Steve Firestine's lab. 1 hr RT incubation for AIR-CAIR equilibration. NB: ˜50% CAIR is decarboxylated during equilibration therefore 5 μM remains for the synthetase reaction.
2 μl ATP/aspartic acid added (fac 30 μM/180 μM) in reaction buffer to all wells. 30 mins RT incubation for appropriate level of ATP turnover. Reaction buffer contained basic buffer plus 10 mM DTT, 0.01% BSA and 0.01% Brij 35, fac.
10 μl ADP detection reagent added to all wells (as per instructions, Transcreener ADP^2 FI kit, BellBrook Labs #3013-10K). Incubation for 1 h at RT to allow antibody equilibration. Fluorescence intensity determined using a Tecan Safire2 (excitation at 590 nm, emission at 617 nm).

In assay [1] the test system is LM2 and MDA-MB-231 breast cancer cell lines. Briefly: PAICS 2D cell proliferation assay (CellTiter-Glo viability, 72 h). Conditions: Homo sapiens; 72 h incubation; cell line not given. In kind it is cell-based. As for the experimental part: PAICS 2D Cell Proliferation Assay
Frozen cryovial stocks of LM2 and MDA-MB-231 breast cancer cell lines were thawed and cultured in 4.5 g/L glucose DMEM (31966-047, Invitrogen) supplemented with 10% Fetal Bovine Serum (10500-064, Invitrogen) until confluent in a T175 flask. Cells were incubated at 37° C. with 5% CO2 in a humidified incubator.
Cells were collected from T175 flasks by washing with PBS (10010-056, Invitrogen) and dissociated using Accutase (A6964, Sigma Aldrich). This was followed by centrifuging (1200 rpm, 5 min) and resuspending the cells in 10 ml of media containing 1% penicillin/streptomycin (15140-122, Invitrogen). Cells were counted by trypan blue exclusion method using an automated cell counter (Cellometer) and diluted to a concentration of 40,000/ml. 1000 cells were then seeded into 384-well white-walled plates (Corning, 3707) in a volume of 25 μl. Plates were Incubated overnight at 37° C. with 5% CO2.
After 24 hours, PAICS compounds were added onto the assay plates using an HP D300 Digital Dispenser (Hewlett Packard). 10 mM stocks were used and dispensed as a 10 point concentration response curve (CRC) ½ log dilution series with a final top concentration of 100 μM. Controls were added onto each plate: positive controls included Staurosporine CRC (100 μM stock dispensed as a 10 point CRC ½ log dilution series with a final top concentration of 1 μM) and PAICS compound MRT00211919 (10 mM stock dispensed as a 10 point CRC ½ log dilution series with a final top concentration of 100 μM); a high control of Staurosporine (0.1 μM (LM2), 0.316 μM (MDA-MB-231) FAC) and a low control of media containing 1% DMSO. A final concentration of 1% DMSO was then added across the plates for normalisation. Following compound addition, assay plates were incubated for 72 hours at 37° C. with 5% CO2.
Day 5—Cytotoxicity and Cell Viability Assays
After 72 h incubation, dead and viable cells were measured in each assay plate. Cytotoxicity was assessed through fluorescent DNA staining using the CellTox™ Green Cytotoxicity Assay kit (G8743, Promega) following the manufacturer's multiplexing protocol. Impaired cell membrane integrity results in the access of dye to stain DNA allowing quantification of dead cells. Cell viability was determined following ATP quantification using the CellTiter-Glo® Luminescent Cell Viability Assay kit (G7572, Promega) following the manufacturer's protocol. ATP released from lysed cells allowed for the generation of a signal proportional to the number of cells present in the well. All endpoint reads were performed using the PheraSTAR Plus (BMG Labtech). Data is expressed as % viable cells and % dead cells against controls (mean±SEM of duplicate curves).
On the technique in general: In ATP-based viability assays light output follows the ATP content of the culture.

Where only a bound is given, the exact number is not on record here.

Sequence of WT full length PAICS (P22234 whole entry): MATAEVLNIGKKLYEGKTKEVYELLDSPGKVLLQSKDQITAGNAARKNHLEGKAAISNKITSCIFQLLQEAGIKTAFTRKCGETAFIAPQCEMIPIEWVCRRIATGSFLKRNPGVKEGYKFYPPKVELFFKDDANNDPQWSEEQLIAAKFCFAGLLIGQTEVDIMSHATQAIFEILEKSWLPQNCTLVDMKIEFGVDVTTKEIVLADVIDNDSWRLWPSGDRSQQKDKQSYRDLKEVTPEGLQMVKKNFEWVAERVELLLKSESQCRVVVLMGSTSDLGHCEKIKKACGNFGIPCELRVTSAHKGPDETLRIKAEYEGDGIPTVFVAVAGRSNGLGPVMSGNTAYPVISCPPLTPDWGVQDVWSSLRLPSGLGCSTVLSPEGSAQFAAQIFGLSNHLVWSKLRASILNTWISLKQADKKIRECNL

One may read the IC50 as the concentration at which inhibition is half-maximal. Low values mean higher potency, high ones lower potency. One may read the EC50 as the concentration giving half of the maximal effect. On WT full length PAICS, `Nc1nc(C(=O)Nc2cc(N3CCN(C(=O)OCC4CNC4)CC3)ccc2Cl)co1` [Example 19, Azetidin-3-ylmethyl 4-(3-(2-aminooxazole-4-carboxamido)-4-chlorophenyl) piperazine-1-carboxylate] displayed an IC50 of more than 100 nM. The compound further showed an EC50 in assay [1] of 500 to 1000 nM.

Compound `CN1CC(COC(=O)N2CCN(c3ccc(Cl)c(NC(=O)c4coc(N)n4)c3)CC2)C1` [Example 20, (1-Methylazetidin-3-yl) methyl 4-(3-(2-aminooxazole-4-carboxamido)-4-chlorophenyl) piperazine-1-carboxylate] yielded an IC50 on WT full length PAICS of 10 to 25 nM. Moreover, the EC50 in assay [1] fell in the range of 500 to 1000 nM.

For `Nc1nc(C(=O)Nc2cc(N3CCN(C(=O)OCCNC4CC4)CC3)ccc2Br)co1` [Example 21, 2-(Cyclopropylamino)ethyl 4-(3-{[(2-amino-1,3-oxazol-4-yl)carbonyl]amino}-4-bromophenyl)piperazine-1-carboxylate], the IC50 at WT full length PAICS fell in the range of 10 to 25 nM. In assay [1], this compound displayed an EC50 of 100 to 250 nM.

As for `Nc1nc(C(=O)Nc2cc(N3CCN(C(=O)OC4CNC4)CC3)ccc2Cl)co1` [Example 22, Azetidin-3-yl 4-(3-{[(2-amino-1,3-oxazol-4-yl)carbonyl]amino}-4-chlorophenyl)piperazine-1-carboxylate], at WT full length PAICS, the IC50 is more than 100 nM. The compound also returned an EC50 in assay [1] of 100 to 250 nM.

Consider `CNCCOC(=O)N1CCN(c2ccc(Br)c(NC(=O)c3coc(N)n3)c2)CC1` [Example 25, 2-(Methylamino)ethyl 4-(3-(2-aminooxazole-4-carboxamido)-4-bromophenyl)piperazine-1-carboxylate], for which, at WT full length PAICS, the IC50 lay in the range of 10 to 25 nM. Further, the EC50 in assay [1] is 100 to 250 nM.

For the compound `CSc1ccc(N2CCN(C(=O)OCCCN(C)C)CC2)cc1NC(=O)c1coc(N)n1` [Example 26, 3-(Dimethylamino)propyl-4-[3-{[(2-amino-1,3-oxazol-4-yl)carbonyl]amino}-4-(methylsulfanyl)phenyl]piperazine-1-carboxylate], in assay [1], the EC50 was 500 to 1000 nM.

`CSc1ccc(N2CCN(C(=O)OCCN(C)C)CC2)cc1NC(=O)c1coc(N)n1` [Example 27, 2-(Dimethylamino)ethyl 4-[3-{[(2-amino-1,3-oxazol-4-yl)carbonyl]amino}-4-(methylsulfanyl)phenyl]piperazine-1-carboxylate] came in with an EC50 in assay [1] of 500 to 1000 nM.

For `CN1CC(OC(=O)N2CCN(c3ccc(Br)c(NC(=O)c4coc(N)n4)c3)CC2)C1` [Example 28, 1-Methylazetidin-3-yl 4-(3-{[(2-amino-1,3-oxazol-4-yl)carbonyl]amino}-4-bromophenyl)piperazine-1-carboxylate], the half-maximal inhibitory concentration (IC50) on WT full length PAICS fell in the range of 10 to 25 nM. In assay [1], this compound showed an EC50 of 250 to 500 nM.

Turning to `CN(C)CCCOC(=O)N1CCN(c2ccc(Cl)c(NC(=O)c3coc(N)n3)c2)CC1` [Example 29, 3-(Dimethylamino)propyl 4-(3-{[(2-amino-1,3-oxazol-4-yl)carbonyl]amino}-4-chlorophenyl)piperazine-1-carboxylate], the IC50 against WT full length PAICS fell in the range of 25 to 100 nM. This compound came in with an EC50 in assay [1] of 500 to 1000 nM.

With `CN1CCC(OC(=O)N2CCN(c3ccc(Cl)c(NC(=O)c4coc(N)n4)c3)CC2)C1` (stereo not drawn) [Example 30, 1-Methylpyrrolidin-3-yl 4-(3-{[(2-amino-1,3-oxazol-4-yl)carbonyl]amino}-4-chlorophenyl)piperazine-1-carboxylate], at WT full length PAICS, the IC50 was more than 100 nM. The same compound gave an EC50 in assay [1] of 500 to 1000 nM.

In the case of `CNCCOC(=O)N1CCN(c2ccc(Cl)c(NC(=O)c3coc(N)n3)c2)CC1` [Example 31, 2-(Methylamino)ethyl 4-(3-{[(2-amino-1,3-oxazol-4-yl)carbonyl]amino}4-chlorophenyl)piperazine-1-carboxylate], the IC50 on WT full length PAICS lay within 25 to 100 nM. In addition, the EC50 in assay [1] was in the range of 500 to 1000 nM.

`Nc1nc(C(=O)Nc2cc(N3CCN(C(=O)OC4CCNC4)CC3)ccc2Cl)co1` (stereo not drawn) [Example 32, Pyrrolidin-3-yl 4-(3-{[(2-amino-1,3-oxazol-4-yl)carbonyl]amino}-4-chlorophenyl)piperazine-1-carboxylate]: the IC50 against WT full length PAICS was 25 to 100 nM. In assay [1], this compound returned an EC50 of 500 to 1000 nM.

`CC(CN1CCCC1)CS(=O)(=O)N1CCN(c2ccc(Br)c(NC(=O)c3coc(N)n3)c2)CC1` (stereo not drawn) [Example 71, 2-Amino-N-[2-bromo-5-(4-{[2-methyl-3-(pyrrolidin-1-yl)propyl]sulfonyl}piperazin-1-yl)phenyl]-1,3-oxazole-4-carboxamide] returned an EC50 in assay [1] of less than 100 nM.

`CNCC(C)CS(=O)(=O)N1CCN(c2ccc(Br)c(NC(=O)c3coc(N)n3)c2)CC1` (stereo not drawn) [Example 78, 2-Amino-N-[2-bromo-5-(4-{[2-methyl-3-(methylamino)propyl]sulfonyl}piperazin-1-yl)phenyl]-1,3-oxazole-4-carboxamide] yielded an EC50 in assay [1] of less than 100 nM.

In the case of `CCNCC(C)CS(=O)(=O)N1CCN(c2ccc(Br)c(NC(=O)c3coc(N)n3)c2)CC1` (stereo not drawn) [Example 79, 2-Amino-N-[2-bromo-5-(4-{[3-(ethylamino)-2-methylpropyl]sulfonyl}piperazin-1-yl)phenyl]-1,3-oxazole-4-carboxamide], the EC50 in assay [1] is less than 100 nM.

As to `CC(CNC(C)C)CS(=O)(=O)N1CCN(c2ccc(Br)c(NC(=O)c3coc(N)n3)c2)CC1` (stereo not drawn) [Example 80, 2-Amino-N-[2-bromo-5-(4-{[2-methyl-3-(propan-2-ylamino)propyl]sulfonyl}piperazin-1-yl)phenyl]-1,3-oxazole-4-carboxamide], the EC50 in assay [1] is less than 100 nM.

Take `CCN(CC)CC(C)CS(=O)(=O)N1CCN(c2ccc(Br)c(NC(=O)c3coc(N)n3)c2)CC1` (stereo not drawn) [Example 81, 2-Amino-N-[2-bromo-5-(4-{[3-(diethylamino)-2-methylpropyl]sulfonyl}piperazin-1-yl)phenyl]-1,3-oxazole-4-carboxamide]: the EC50 in assay [1] is 100 to 250 nM.

`CC(CN(C)C)CS(=O)(=O)N1CCN(c2ccc(Br)c(NC(=O)c3coc(N)n3)c2)CC1` (stereo not drawn) [Example 82, 2-Amino-N-[2-bromo-5-(4-{[3-(dimethylamino)-2-methylpropyl]sulfonyl}piperazin-1-yl)phenyl]-1,3-oxazole-4-carboxamide]: the EC50 in assay [1] lay within 100 to 250 nM.

As to `Nc1nc(C(=O)Nc2cc(N3CCN(S(=O)(=O)C4CCNC4)CC3)ccc2Br)co1` (stereo not drawn) [Example 88, 2-Amino-N-{2-bromo-5-[4-(pyrrolidin-3-ylsulfonyl)piperazin-1-yl]phenyl}-1,3-oxazole-4-carboxamide], the EC50 in assay [1] was 100 to 250 nM.

Turning to `CN1CCC(S(=O)(=O)N2CCN(c3ccc(Br)c(NC(=O)c4coc(N)n4)c3)CC2)C1` (stereo not drawn) [Example 89, 2-Amino-N-(2-bromo-5-{4-[(1-methylpyrrolidin-3-yl)sulfonyl]piperazin-1 yl}phenyl)-1,3-oxazole-4-carboxamide], the EC50 in assay [1] lay in the range of 100 to 250 nM.
